These results are taken from ChEMBL document CHEMBL4699511, “Cedrol, a Sesquiterpene Alcohol, Enhances the Anticancer Efficacy of Temozolomide in Attenuating Drug Resistance via Regulation of the DNA Damage Response and MGMT Expression” (J Nat Prod, 2020).

Activity calls are given as the source filed them. The rule behind the calls is not given here.

For series [1], the system named is RG2. Put plainly: Synergistic cytotoxicity against rat RG2 cells assessed as synergistic effect index at 134.9 uM after 48 hrs in presence of 412.1 uM TMZ by MTT assay. In kind it is functional. On the technique in general: Tetrazolium assays rely on reduction of a dye to a coloured formazan, in cell work by metabolically active cells.
Series [2] is described as follows: Synergistic cytotoxicity against rat CTX TNA2 cells assessed as synergistic effect index at 112.4 uM after 48 hrs in presence of 412.1 uM TMZ by MTT assay. It counts as cell-based. Particulars: ctx tna2, 48 h.
Series [3] in a line: Synergistic cytotoxicity against rat CTX TNA2 cells assessed as synergistic effect index at 134.9 uM after 48 hrs in presence of 412.1 uM TMZ by MTT assay. It counts as cell-based. Particulars: ctx tna2, 48 h.
The nature of series [4]: Synergistic cytotoxicity against rat CTX TNA2 cells assessed as combination index at 112.4 uM after 48 hrs in presence of 309 uM TMZ by MTT assay. It counts as cell-based. Conditions: ctx tna2, 48 h.
The test system of series [5] is DBTRG-05MG. The series can be described thus: Induction of cell cycle arrest in human DBTRG-05MG cells assessed as accumulation at G2/M phase at 112.4 uM after 6 hrs by propidium iodide staining based flow cytometric analysis (reference value: 30.08 +/- 0.1%). In kind it is functional.
The test system of series [6] is DBTRG-05MG. Put plainly: Induction of cell cycle arrest in human DBTRG-05MG cells assessed as accumulation at S phase at 112.4 uM after 24 hrs by propidium iodide staining based flow cytometric analysis (reference value: 22.76 +/- 1.56%). It counts as functional. (In flow cytometry, cells or beads pass a laser one at a time.)
In series [7] the test system is RG2. The series can be described thus: Induction of cell cycle arrest in rat RG2 cells assessed as accumulation at S phase at 112.4 uM after 6 hrs in presence of TMZ by propidium iodide staining based flow cytometric analysis (reference value: 20.15 +/- 2.44%). In kind it is functional.
The test system of series [8] is RG2. The series can be described thus: Induction of cell cycle arrest in rat RG2 cells assessed as accumulation at G2/M phase at 112.4 uM after 12 hrs by propidium iodide staining based flow cytometric analysis (reference value: 20.04 +/- 0.55%). It counts as functional.
Series [9] has as its system RG2. The series can be described thus: Induction of cell cycle arrest in rat RG2 cells assessed as accumulation at S phase at 112.4 uM after 24 hrs by propidium iodide staining based flow cytometric analysis (reference value: 20.15 +/- 2.44%). It counts as functional.
For series [10], the system named is RG2. The series can be described thus: Induction of cell cycle arrest in rat RG2 cells assessed as accumulation at G2/M phase at 112.4 uM after 24 hrs in presence of TMZ by propidium iodide staining based flow cytometric analysis (reference value: 20.04 +/- 0.55%). It counts as functional.
Series [11] deals with RG2. The series can be described thus: Induction of cell cycle arrest in rat RG2 cells assessed as accumulation at G0/G1 phase at 112.4 uM after 48 hrs in presence of TMZ by propidium iodide staining based flow cytometric analysis (reference value: 57.81 +/- 1.9%). It counts as functional.
The test system of series [12] is RG2. The series can be described thus: Induction of cell cycle arrest in rat RG2 cells assessed as accumulation at S phase at 112.4 uM after 48 hrs in presence of TMZ by propidium iodide staining based flow cytometric analysis (reference value: 20.15 +/- 2.44%). It counts as functional.
Series [13] concerns DBTRG-05MG. Put plainly: Induction of cell cycle arrest in human DBTRG-05MG cells assessed as CyclinA expression at 112.4 uM after 48 hrs by Western blot analysis (reference value: 1). It counts as functional. In general terms: A western blot detects proteins with antibodies after separation by electrophoresis.
Series [14] concerns DBTRG-05MG. Put plainly: Induction of cell cycle arrest in human DBTRG-05MG cells assessed as CyclinD1 expression at 112.4 uM after 48 hrs in presence of TMZ by Western blot analysis (reference value: 1). It counts as functional.
For series [15], the system named is DBTRG-05MG. Put plainly: Induction of cell cycle arrest in human DBTRG-05MG cells assessed as CyclinA expression at 112.4 uM after 48 hrs in presence of TMZ by Western blot analysis (reference value: 1). In kind it is functional.
Series [16] concerns DBTRG-05MG. The series can be described thus: Inhibition of JNK phosphorylation at Thr183/Tyr185 residues in human DBTRG-05MG cells at 112.4uM after 48 hrs in presence of TMZ by Western blot analysis (reference value: 1). In kind it is cell-based.
Series [17] deals with RG2. Put plainly: Inhibition of AKT phosphorylation at S473 residues in rat RG2 cells at 112.4uM after 48 hrs in presence of TMZ by Western blot analysis. It counts as cell-based.
Series [18] has as its system RG2. Put plainly: Inhibition of p38 phosphorylation at Tyr182 residues in rat RG2 cells at 112.4uM after 48 hrs in presence of TMZ by Western blot analysis (reference value: 1). It counts as cell-based.
Series [19] deals with RG2. Put plainly: Induction of DNA damage in rat RG2 cells assessed as ATM phosphorylation at ser1981 residues at 112.4 uM after 48 hrs in presence of TMZ by Western blot analysis (reference value: 1). In kind it is functional.
The subject of series [20] is DBTRG-05MG. Put plainly: Induction of DNA damage in human DBTRG-05MG cells assessed as ATR phosphorylation at ser428 residues at 112.4 uM after 48 hrs in presence of TMZ by Western blot analysis (reference value: 1). In kind it is functional.
Series [21] deals with DBTRG-05MG. The series can be described thus: Induction of DNA damage in human DBTRG-05MG cells assessed as Chk2 phosphorylation at Thr68 residues at 112.4 uM after 48 hrs in presence of TMZ by Western blot analysis (reference value: 1). It counts as functional.
For series [22], the system named is RG2. Put plainly: Induction of DNA damage in rat RG2 cells assessed as H2A.X phosphorylation at ser139 at 112.4 uM after 48 hrs in presence of TMZ by Western blot analysis (reference value: 1). In kind it is functional.
Series [23] can be described thus: Effect of MDR1 expression in rat RG2 cells at 112.4 uM after 48 hrs by Western blot analysis. It counts as functional.
A short description of series [24]: Toxicity in BALB/c mouse xenografted with DBTRG-05MG cells assessed as reduction in body weight at 5 mg/kg, ip after 5 days measured every 2 days. Particulars: in vivo, 120 h, time 5 day. It counts as organism-based.
Series [25] deals with Serine/threonine-protein kinase AKT (Homo sapiens) (UniProt P31751+Q9Y243+P31749). The series can be described thus: Inhibition of AKT phosphorylation at S473 residues in human DBTRG-05MG cells at 206 uM after 48 hrs by Western blot analysis. In kind it is cell-based.
Serine/threonine-protein kinase AKT (Homo sapiens), sequence (P31749 whole entry, looked up): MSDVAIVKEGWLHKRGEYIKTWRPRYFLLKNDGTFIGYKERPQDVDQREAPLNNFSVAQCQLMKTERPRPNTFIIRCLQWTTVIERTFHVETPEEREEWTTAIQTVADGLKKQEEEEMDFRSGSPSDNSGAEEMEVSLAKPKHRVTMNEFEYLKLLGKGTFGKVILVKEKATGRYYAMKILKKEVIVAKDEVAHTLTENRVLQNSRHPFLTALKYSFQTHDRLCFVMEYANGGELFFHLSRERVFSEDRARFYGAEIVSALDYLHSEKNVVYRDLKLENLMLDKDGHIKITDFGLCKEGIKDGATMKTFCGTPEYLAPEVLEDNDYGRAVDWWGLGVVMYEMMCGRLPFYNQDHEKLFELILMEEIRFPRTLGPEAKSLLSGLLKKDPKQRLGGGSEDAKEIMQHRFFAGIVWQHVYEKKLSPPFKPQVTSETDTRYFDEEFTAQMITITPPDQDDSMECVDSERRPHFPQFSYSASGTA
Serine/threonine-protein kinase AKT (Homo sapiens), sequence (P31751 whole entry, looked up): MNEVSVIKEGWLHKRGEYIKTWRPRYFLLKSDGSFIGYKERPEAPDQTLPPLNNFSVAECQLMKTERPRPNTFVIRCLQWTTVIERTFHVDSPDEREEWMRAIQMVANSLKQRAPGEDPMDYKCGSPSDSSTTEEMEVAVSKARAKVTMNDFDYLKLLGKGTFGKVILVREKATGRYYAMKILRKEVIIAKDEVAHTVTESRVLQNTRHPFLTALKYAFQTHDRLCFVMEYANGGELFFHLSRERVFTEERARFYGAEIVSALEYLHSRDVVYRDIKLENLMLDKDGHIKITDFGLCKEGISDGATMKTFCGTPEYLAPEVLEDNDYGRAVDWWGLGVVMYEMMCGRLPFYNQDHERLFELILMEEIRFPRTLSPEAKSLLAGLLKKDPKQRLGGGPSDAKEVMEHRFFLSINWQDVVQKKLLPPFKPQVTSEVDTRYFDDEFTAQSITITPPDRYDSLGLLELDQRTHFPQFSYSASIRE
Serine/threonine-protein kinase AKT (Homo sapiens), sequence (Q9Y243 whole entry, looked up): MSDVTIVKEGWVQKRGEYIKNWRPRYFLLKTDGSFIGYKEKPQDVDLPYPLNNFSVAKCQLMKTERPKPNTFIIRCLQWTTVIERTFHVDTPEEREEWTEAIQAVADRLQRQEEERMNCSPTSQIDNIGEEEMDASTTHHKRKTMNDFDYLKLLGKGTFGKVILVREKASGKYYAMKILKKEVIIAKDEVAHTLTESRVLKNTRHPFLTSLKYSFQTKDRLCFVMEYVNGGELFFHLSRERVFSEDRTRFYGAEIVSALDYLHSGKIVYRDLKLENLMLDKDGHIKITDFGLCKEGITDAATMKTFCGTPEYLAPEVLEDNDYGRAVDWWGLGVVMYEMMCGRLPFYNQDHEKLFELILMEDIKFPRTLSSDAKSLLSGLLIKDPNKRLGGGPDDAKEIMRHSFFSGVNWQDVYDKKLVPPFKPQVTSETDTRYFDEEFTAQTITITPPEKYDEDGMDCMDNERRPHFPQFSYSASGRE
The subject of series [26] is RG2. The series can be described thus: Induction of apoptosis in rat RG2 cells assessed as increase in apoptotic body formation at 206 uM after 48 hrs by TUNEL assay. In kind it is functional, cell-based.
Series [27] relates to RG2. Put plainly: Induction of apoptosis in rat RG2 cells assessed as Bax expression at 206 uM after 48 hrs by Western blot analysis (reference value: 1). In kind it is functional.
Series [28] has as its system RG2. The series can be described thus: Induction of apoptosis in rat RG2 cells assessed as cleaved caspace-9 expression at 206 uM after 48 hrs by Western blot analysis (reference value: 1). In kind it is functional.
The subject of series [29] is RG2. Put plainly: Induction of apoptosis in rat RG2 cells assessed as phosphorylated caspace-3 expression at 206 uM after 48 hrs by Western blot analysis (reference value: 1). In kind it is functional.
Series [30] has as its system RG2. Put plainly: Induction of apoptosis in rat RG2 cells assessed as cleaved caspace-3 expression at 206 uM after 48 hrs by Western blot analysis (reference value: 1). In kind it is functional.
The subject of series [31] is DBTRG-05MG. Put plainly: Induction of DNA damage in human DBTRG-05MG cells assessed as ATM phosphorylation at ser1981 residues at 206 uM after 48 hrs by Western blot analysis (reference value: 1). It counts as functional.
In series [32] the test system is RG2. The series can be described thus: Induction of DNA damage in rat RG2 cells assessed as H2A.X phosphorylation at ser139 at 206 uM after 48 hrs by Western blot analysis (reference value: 1). In kind it is functional.

As to `C[C@@H]1CC[C@H]2C(C)(C)[C@H]3C[C@@]12CC[C@@]3(C)O` [CEDROL], the results for the Activity_index (with RG2 [1]; in series [2]; in series [3]) were 0.9, 0.58 and 0.58, respectively. Further, the CI in [4] is on record as 1.09. For the same compound, the Activity in the series on DBTRG-05MG [5] is 30.35%; in the series with DBTRG-05MG [6], 16.03%; with RG2 [7], 19.02%; in the series on RG2 [8], 18.1%; with RG2 [9], 9.09%; in the series on RG2 [10], 26.19%. For the same compound, the Activity in the series with RG2 [11] was 44%; with RG2 [12], 20.29%. In addition, the “fold change (FC)” value came to 0.6 with DBTRG-05MG [13]; 0.4 in the series on DBTRG-05MG [14]; 1.6 with DBTRG-05MG [15]; 0.8 in the series with DBTRG-05MG [16]; 0.5 with RG2 [17]; 1.8 with RG2 [18]. For the same compound, the “fold change (FC)” value is 1 with RG2 [19]; 2.3 in the series on DBTRG-05MG [20]; 2.6 in the series on DBTRG-05MG [21]; 1.3 in the series on RG2 [22]; 2.1 in series [23].
Take `Cn1nnc2c(C(N)=O)ncn2c1=O` [TEMOZOLOMIDE]: the Activity entry in [24] is listed as “Non-Toxic”. For the same compound, the fold change (FC) in series [25] was found to be 0.7; in the series on RG2 [27], 1.1; in the series with RG2 [28], 1.7; in the series with RG2 [29], 1.1; in the series with RG2 [30], 2.5; with DBTRG-05MG [31] it was 2.8. The “fold change (FC)” value in the series with RG2 [32] is 1.1. For the same compound, the outcome in the series on RG2 [26] was Active.
